Calls of active or inactive are those of the source. The rule behind the calls is not given here.
Legend:
[1] = Antioxidant activity assessed as DPPH radical scavenging activity incubated for 30 mins; type: physicochemical
[2] = tested on: Staphylococcus aureus; assay: Antimicrobial activity against methicillin-resistant Staphylococcus aureus; type: functional, organism-based
[3] = tested on: Klebsiella pneumoniae; assay: Antimicrobial activity against Klebsiella pneumoniae; type: functional, organism-based
[4] = tested on: MIA PaCa-2; assay: Cytotoxicity against human MIAPaCa2 cells by MTT assay; type: functional, cell-based

Structure (SMILES)	IC50 [1] [µM]	Activity [2]	Activity [3]	Activity [4]
O=C1O[C@H]([C@@H](O)CO)C(O)=C1O [ASCORBIC ACID]	3.2			
O=C1c2c3c(cc(O)c2[C@H](O)[C@@H]2O[C@H]12)-c1ccc(O)c2c(O)ccc-3c12	3.1	inactive	inactive	inactive
O=C1c2c3c(cc(O)c2[C@H](O)[C@H](O)[C@@H]1Cl)-c1ccc(O)c2c(O)ccc-3c12	3.6	inactive	inactive	inactive
